≈ marks a conversion by molar mass, not a printed value. Read-outs that look alike come from different tables or passages of the source. Marks after values point to notes of the source that are not given here.
What was measured:
Format in all cases: cell-based
[1] = system: Mycobacterium smegmatis ATCC 700084; test: MIC serial dilution assay; parameters: key: (-): No inhibition
Description: (§1) The Minimum Inhibitory Concentration (MIC) of the isolated metabolites (1–8) was evaluated using serial dilution assays in a 96-well microtiter plate against a panel of Gram-positive bacteria, namely Bacillus subtilis DSM 10, Mycobacterium smegmatis ATCC 700084 and Staphylococcus aureus DSM 346; Gram-negative bacteria, including Acinetobacter baumannii DSM 30008, Chromobacterium violaceum DSM 30191, Escherichia coli DSM 1116 and Pseudomonas aeruginosa PA14 and fungal cultures of Candida albicans DSM 1665, Mucor hiemalis DSM 2656, Rhodotorula glutinis DSM 10134, Schizosaccharomyces pombe DSM 70572 and Wickerhamomyces anomalus DSM 6766, according to previously described protocols. The MTT-based cytotoxicity assay was performed against several cancer cell lines (human endocervical adenocarcinoma KB 3.1, mouse fibroblasts L929, squamous cancer A431, breast cancer MCF-7, lung cancer A549, ovary cancer SK-OV-3, and prostate cancer PC-3) in accordance with our previously established protocols.

[2] = system: Staphylococcus aureus DSM 346; test: MIC serial dilution assay; parameters: key: (-): No inhibition
Description: as §1

[3] = system: Bacillus subtilis DSM 10; test: MIC serial dilution assay; parameters: key: (-): No inhibition
Description: as §1

[4] = system: Chromobacterium violaceum DSM 30191; test: MIC serial dilution assay; parameters: key: (-): No inhibition; settings: starting concentration 66.7 μg/mL
Description: as §1

[5] = system: Escherichia coli DSM 1116; test: MIC serial dilution assay; parameters: key: (-): No inhibition; settings: starting concentration 66.7 μg/mL
Description: as §1

[6] = system: Pseudomonas aeruginosa PA14; test: MIC serial dilution assay; parameters: key: (-): No inhibition
Description: as §1

[7] = system: Rhodotorula glutinis DSM 10134; test: MIC serial dilution assay; parameters: key: (-): No inhibition; settings: Rhodoturula glutinis, starting concentration 66.7 μg/mL
Description: as §1

[8] = system: Schizosaccharomyces pombe DSM 70572; test: MIC serial dilution assay; parameters: key: (-): No inhibition
Description: as §1

[9] = system: Mucor hiemalis DSM 2656; test: MIC serial dilution assay; parameters: key: (-): No inhibition
Description: as §1

[10] = system: Wickerhamomyces anomalus DSM 6766; test: MIC serial dilution assay; parameters: key: (-): No inhibition; settings: starting concentration 66.7 μg/mL
Description: as §1

[11] = system: Candida albicans DSM 1665; test: MIC serial dilution assay; parameters: key: (-): No inhibition; settings: starting concentration 66.7 μg/mL
Description: as §1

[12] = system: Acinetobacter baumannii DSM 30008; test: MIC serial dilution assay; parameters: key: (-): No inhibition; settings: Acinetobacter baumanii, starting concentration 66.7 μg/mL
Description: as §1

[13] = system: breast cancer MCF-7; test: MTT-based cytotoxicity assay; settings: MCF-7, starting concentration 37 µg/mL, read-out: IC50
Description: as §1

[14] = system: lung cancer A549; test: MTT-based cytotoxicity assay; settings: starting concentration 37 µg/mL, read-out: IC50
Description: as §1

[15] = system: ovary cancer SK-OV-3; test: MTT-based cytotoxicity assay; settings: SKOV-3, starting concentration 37 µg/mL, read-out: IC50
Description: as §1

[16] = system: mouse fibroblasts L929; test: MTT-based cytotoxicity assay; settings: starting concentration 37 µg/mL, read-out: IC50
Description: as §1

[17] = system: prostate cancer PC-3; test: MTT-based cytotoxicity assay; settings: PC-3; starting concentration 37 µg/mL; read-out: IC50
Description: as §1

[18] = system: human endocervical adenocarcinoma KB 3.1; test: MTT-based cytotoxicity assay; settings: KB3.1, starting concentration 37 µg/mL, read-out: IC50
Description: as §1

[19] = system: squamous cancer A431; test: MTT-based cytotoxicity assay; settings: A431, starting concentration 37 µg/mL, read-out: IC50
Description: as §1

[20] = starting concentration 66.7 μg/mL
[21] = DSM346, starting concentration 66.7 μg/mL, read-out: MIC
[22] = DSM10, starting concentration 66.7 μg/mL, read-out: MIC
[23] = DSM2656, starting concentration 66.7 μg/mL, read-out: MIC

For `NC[C@H]1O[C@H](O[C@H]2[C@H](O)[C@@H](O[C@H]3O[C@H](CO)[C@@H](O)[C@H](N)[C@H]3O)[C@H](N)C[C@@H]2N)[C@H](O)[C@@H](O)[C@@H]1O` [Kanamycin, reference compound], the MIC [1, 20] was 1.7 ^k µg/mL.
With `CN(C)[C@@H]1C(=O)C(C(N)=O)=C(O)[C@@]2(O)C(=O)C3=C(O)c4c(O)cccc4[C@@](C)(O)[C@H]3[C@H](O)[C@@H]12` [Oxytetracyclin, reference compound] the MIC [2, 20] was 0.83 ^o µg/mL, the MIC [3, 20] was 8.3 ^o µg/mL and the MIC [4] was 0.83 ^o µg/mL. For the same compound, the MIC [5] was 1.7 ^o µg/mL.
Compound `CNC(C)C1CCC(N)C(OC2C(N)CC(N)C(OC3OCC(C)(O)C(NC)C3O)C2O)O1` (centres unmarked) [Gentamicin, reference compound] has an MIC ([6]; PA14, starting concentration 66.7 μg/mL, read-out: MIC) of 0.21 µg/mL (≈ 0.44 µM).
With `C[C@@H]1[C@H](O)[C@@H](C)/C=C/C=C/CC/C=C/C=C/C=C/C=C/C(O[C@H]2O[C@H](C)[C@@H](O)[C@H](N)[C@@H]2O)CC2O[C@](O)(CC(O)C(O)CCC(O)CC(O)CC(O)CC(=O)O[C@H]1C)CC(O)C2C(=O)O` (some centres unmarked) [Nystatin, reference compound] the MIC [7] was 4.2 ^n µg/mL, the MIC [8, 20] was 8.3 ^n µg/mL and the MIC [9, 20] was 8.3 ^n µg/mL. The MIC ([9]; starting concentration 66.7 μg/mL, listed as nystatin) was 8.3 µg/mL (≈ 8.96 µM), the MIC [10] was 8.3 ^n µg/mL and the MIC [11] was 16.6 ^n µg/mL.
beauvericin [Compound 8] was tested, and the MIC [7] was 66.6 µg/mL, the MIC [2, 20] was 8.3 µg/mL and the MIC [1, 20] was 8.3 µg/mL. For the same compound, the MIC [3, 20] was 8.3 µg/mL, the MIC [8, 20] was 33.3 µg/mL and the MIC [4] was “-”. The MIC [9, 20] was 66.6 µg/mL, the MIC [12] was “-” and the MIC [10] was “-”. For the same compound, the MIC [11] was “-”, the MIC [6, 20] was “-” and the MIC [5] was “-”. It also gave an IC50 [13] of 2000 nM, an IC50 [14] of 2600 nM and an IC50 [15] of 3300 nM. The IC50 [16] was 2800 nM, the IC50 [17] was 1900 nM and the IC50 [18] was 2300 nM. It also gave an IC50 [19] of 2400 nM.
`CCC(C)C=C(C)C=CC1=CC2=C(Cl)C(=O)C3(C)OC(=O)C(C(C)O)C3C2=CO1` (centres unmarked) [Compound 7, isochromophilonol A1/A2] was tested, and the MIC [7] was “-”, the MIC [2, 21] was 66.6 µg/mL (≈ 159 µM) and the MIC ([1]; Mycolicibacterium smegmatis, ATCC700084, starting concentration 66.7 μg/mL, read-out: MIC) was 16.6 µg/mL (≈ 39.6 µM). The MIC [3, 22] was 16.6 µg/mL (≈ 39.6 µM), the MIC [8, 20] was “-” and the MIC [4] was “-”. The MIC [9, 23] was 8.3 µg/mL (≈ 19.8 µM), the MIC [12] was “-” and the MIC [10] was “-”. The MIC [11] was “-”, the MIC [6, 20] was “-” and the MIC [5] was “-”. It also gave an IC50 ([13]; Homo sapiens, MCF7) of 900 nM, an IC50 ([14]; Homo sapiens) of 2300 nM and an IC50 ([15]; Homo sapiens, SK-OV-3) of 3300 nM. It also gave an IC50 ([16]; Mus musculus) of 12900 nM, an IC50 [17] of 1100 nM and an IC50 ([18]; Homo sapiens, KB 3-1) of 5300 nM. It also gave an IC50 ([19]; Homo sapiens, A-431) of 4100 nM.
`CC(C)=CCc1ccc(O)c2c1C(c1cc(C)cc3c1O[C@H](C(C)(C)O)CO3)NC2=O` (mixture of isomers) [Compound 5, diaporisoindole A/B] was tested, and the MIC ([7]; Rhodotorula glutinis, DSM10134, read-out: MIC) was 66.6 µg/mL, the MIC [2, 21] was 66.6 µg/mL and the MIC [1, 20] was “-”. For the same compound, the MIC [3, 22] was 66.6 µg/mL, the MIC ([8]; DSM70572, starting concentration 66.7 μg/mL, read-out: MIC) was 33.3 µg/mL and the MIC [4] was “-”. For the same compound, the MIC [9, 23] was 66.6 µg/mL, the MIC [12] was “-” and the MIC [10] was “-”. For the same compound, the MIC [11] was “-”, the MIC [6, 20] was “-” and the MIC [5] was “-”. The IC50 ([16]; Mus musculus) was 54400 nM and the IC50 ([18]; Homo sapiens, KB 3-1) was 22000 nM.
Compound `O=C(O)c1cn(C2CC2)c2cc(N3CCNCC3)c(F)cc2c1=O` [Ciprobay, reference compound] has an MIC ([12]; Acinetobacter baumannii, DSM30008, read-out: MIC) of 0.26 µg/mL (≈ 0.785 µM).

— article PMC10381184, “Unprecedented Antimicrobial and Cytotoxic Polyketides from Cultures of Diaporthe africana sp. nov” (Journal of Fungi, 2023)
